Like-named read-outs stand apart in the source and are kept apart here.
Tests used:
multiple myeloma [1] = conditions: cited from earlier work
OPM2 xenograft [2] = test system: OPM2 xenograft
Procedure: Mice with established OPM2 xenograft tumors were randomized into 2 groups with 8 mice per group and were administered one of the following sets of regimens: (A) Control group was left untreated (filled circles), elotuzumab (0.5 mg/kg, twice weekly IP for 7 doses starting d16, open circles), dexamethasone (5 mg/kg, daily IP for 7 doses starting on d16, open triangles), elotuzumab plus dexamethasone combination (filled triangles), pomalidomide (5 mg/kg, daily for 5 days orally starting on d16 and then again for 5 days on d23) plus dexamethasone combination (dashes); or (B) Control group was left untreated (filled circles), elotuzumab (0.5 mg/kg, twice weekly IP for 7 doses starting d16, open circles), pomalidomide (5 mg/kg, daily for 5 days orally starting on d16 and then again for 5 days on d23, open squares), elotuzumab (0.5 mg/kg, twice weekly IP for 10 doses starting d16) plus pomalidomide combination (filled squares), elotuzumab (10 doses) plus pomalidomide plus dexamethasone combination (x's). The data are presented as means+/−standard deviation.
(§1) Mice with established OPM2 xenograft tumors were randomized into groups with 8 mice per group and were administered one of the following regimens: (A): untreated (control); (B): elotuzumab; (C): pomalidomide; (D): dexamethasone; (E): elotuzumab plus pomalidomide; (F): elotuzumab plus dexamethasone; (G): pomalidomide plus dexamethasone; or (H): elotuzumab plus pomalidomide plus dexamethasone. Data represent tumor weight measured in individual animals. Dosing route and regimen are described in FIG. 2 and Example 1.
(§2) Animals: All mice were obtained from Taconic Biosciences (Germantown, N.Y.), and maintained in ammonia-free environment in a defined and pathogen-free colony. All animal procedures were approved by the Bristol-Myers Squibb (BMS) Institutional Animal Care and Use Committee. The animal care and use program at BMS has been fully accredited by the Association for Assessment and Accreditation of Laboratory Animal Care International (AAALAC).
(§3) Animal Models: The human tumor xenograft OPM2 was grown in IcrTac scid mice (ICRPrkdcscid). Treated animals were checked daily for treatment related toxicity/mortality. Each group of animals was weighed before the initiation of treatment (Wt1) and then weighed again following the last treatment dose (Wt2). The difference in body weight (Wt2-Wt1) provides a measure of treatment-related toxicity. Additional weights were recorded at each measurement date to monitor toxicity.
(§4) Tumor response was determined by measurement of tumors with a caliper twice a week, until the tumors reached a predetermined “target” size of 1 gm. Tumor weights (mg) were estimated from the formula: Tumor weight=(length×width2)/2.
(§5) Tumor response end-point was expressed in terms of tumor cell kill and tumor growth inhibition. Tumor growth delay was defined as the difference in time (days) required for the treated tumors (T) to reach a predetermined target size compared to those in the control group (C). For this purpose tumor weight of a group was expressed as […] tumor weight (MTW).
(§6) Tumor cell kill was expressed in terms of log cell kill (LCK), represented by the equation LCK=[…] where tumor volume doubling time (TVDT) was first calculated with the formula: TVDT=Median time (days) for control tumor weight to reach target size−Median time (days) for control tumor weight to reach half the target size.

OPM2 xenograft [3] = test system: OPM2 xenograft; remark: listed apart in the source
Procedure: FIGS. 4A-B. Study #2 (OPM2-16), Antitumor Activity, Elotuzumab Efficacy in Combination with Pomalidomide and Dexamethasone in OPM2 Multiple Myeloma Xenograft. Mice with established OPM2 xenograft tumors were randomized into 2 groups with 8 mice per group and were administered one of the following sets of regimens: (A) Control group was left untreated (filled circles), elotuzumab (0.5 mg/kg, twice weekly IP for 6 doses starting d12, open circles), dexamethasone (5 mg/kg, daily IP for 7 doses starting on d12, open triangles), elotuzumab (0.5 mg/kg, twice weekly IP for 8 doses starting d12) plus dexamethasone combination (filled triangles), pomalidomide (5 mg/kg, daily for 5 days orally starting on d12 and then again for 5 days on d19) plus dexamethasone combination (dashes); or (B) Control group was left untreated (filled circles), elotuzumab (0.5 mg/kg, twice weekly IP for 6 doses starting d12, open circles), pomalidomide (5 mg/kg, daily for 5 days orally starting on d12 and then again for 5 days on d19, open squares), elotuzumab (0.5 mg/kg, twice weekly IP for 8 doses starting d12) plus pomalidomide combination (filled squares), elotuzumab (0.5 mg/kg, twice weekly IP for 8 doses starting d12) plus pomalidomide plus dexamethasone combination (x's). The data are presented as means+/−standard deviation.
as §1, with “FIGS. 5A-H. Study #2 (OPM2-16), Anti Tumor Activity of Elotuzumab, Pomalidomide, and Dexamethasone as Single Agent and Combination Treatment in OPM2 Multiple Myeloma Xenograft tumor model. Mice” for “Mice”, “FIG. 4” for “FIG. 2”
as §2, §3, §4, §5, §6

[4] = test system: refractory or relapsed and refractory MM; conditions: MM-003; cited from earlier work
multiple myeloma [5] = conditions: treated multiple myeloma patients; cited from earlier work
[6] = three-drug induction: bortezomib-dexamethasone plus the named drug
[7] = in combination with dexamethasone as induction therapy before ASCT
[8] = Study #1, ELO 0.5, POM 5, DEX 5 mg/kg, mice of 8
[9] = Study #2, ELO 0.5, POM 5, DEX 5 mg/kg, mice of 8

**Q.** Which “rates of nearly CR” value (multiple myeloma [1]; [6]) does the source give for O=P1(N(CCCl)CCCl)NCCCO1 (stereo not drawn) [cyclophosphamide] here?
**A.** 39%

**Q.** For O=C1CCC(N2C(=O)c3ccccc3C2=O)C(=O)N1 (stereo not drawn) [thalidomide], which “rates of nearly CR” value (multiple myeloma [1]; [7]) is on record?
**A.** 8%

**Q.** What about the “rates of nearly CR” value (multiple myeloma [1]; [6]) of the same molecule?
**A.** 32%

**Q.** For COc1cccc2c1C(=O)c1c(O)c3c(c(O)c1C2=O)C[C@@](O)(C(=O)CO)C[C@@H]3O[C@H]1C[C@H](N)[C@H](O)[C@H](C)O1 [doxorubicin], which “rates of nearly CR” value (multiple myeloma [1]; [6]) is on record?
**A.** 7%

**Q.** For C[C@@H]1C[C@H]2[C@@H]3CCC4=CC(=O)C=C[C@]4(C)[C@@]3(F)[C@@H](O)C[C@]2(C)[C@@]1(O)C(=O)CO [Dexamethasone], which “Median Days to Target Size” value (OPM2 xenograft [2]; Study #1, ELO 0.5 mg/kg IP 2QW from d16, POM 5 mg/kg PO QD × 5 d16, 23, DEX 5 mg/kg IP QD × 7 from d16, target size 1 gm) is on record?
**A.** 28.0 days

**Q.** What about the LCK (OPM2 xenograft [2]; Study #1, ELO 0.5, POM 5, DEX 5 mg/kg) of the same molecule?
**A.** 0.14

**Q.** And the “CR (complete tumor regressions)” value (OPM2 xenograft [2]; [8])?
**A.** 0/8

**Q.** What about the “PR (partial tumor regressions)” value (OPM2 xenograft [2]; [8]) of the same molecule?
**A.** 0/8

**Q.** And the TGI (OPM2 xenograft [2]; Study #1, ELO 0.5, POM 5, DEX 5 mg/kg, versus untreated mice)?
**A.** 50.4%

**Q.** What about the “Max % Weight Loss” value (OPM2 xenograft [2]; mouse, in vivo) of the same molecule?
**A.** −5.7%

**Q.** And the “Median Days to Target Size” value (OPM2 xenograft [3]; Study #2, ELO 0.5 mg/kg IP 2QW from d12, POM 5 mg/kg PO QD × 5 d12, 19, DEX 5 mg/kg IP QD × 7 from d12, target size 1 gm)?
**A.** 25.7 days

**Q.** What about the LCK (OPM2 xenograft [3]; Study #2, ELO 0.5, POM 5, DEX 5 mg/kg) of the same molecule?
**A.** 0.63

**Q.** What about the “CR (complete tumor regressions)” value (OPM2 xenograft [3]; [9]) of the same molecule?
**A.** 0/8

**Q.** What about the “PR (partial tumor regressions)” value (OPM2 xenograft [3]; [9]) of the same molecule?
**A.** 0/8

**Q.** And the TGI (OPM2 xenograft [3]; Study #2, ELO 0.5, POM 5, DEX 5 mg/kg, versus untreated mice)?
**A.** 62.8%

**Q.** What about the “Max % Weight Loss” value (OPM2 xenograft [3]; mouse, in vivo) of the same molecule?
**A.** −9.0%

**Q.** What about the “grade 3-4 anemia” value [4] of the same molecule?
**A.** 37%

**Q.** And the “grade 3-4 bone pain” value [4]?
**A.** 5%

**Q.** What about the “grade 3-4 fatigue” value [4] of the same molecule?
**A.** 6%

**Q.** What about the “grade 3-4 neutropenia” value [4] of the same molecule?
**A.** 16%

**Q.** And the “grade 3-4 pneumonia” value [4]?
**A.** 8%

**Q.** And the “grade 3-4 thrombocytopenia” value [4]?
**A.** 26%

**Q.** Which “rates of nearly CR” value (multiple myeloma [1]; [7]) does the source give for Nc1cccc2c1CN(C1CCC(=O)NC1=O)C2=O (stereo not drawn) [lenalidomide] here?
**A.** 15%

**Q.** What about the “rates of nearly CR” value (multiple myeloma [1]; [6]) of the same molecule?
**A.** 57%

**Q.** And the response rate (multiple myeloma [5])?
**A.** 40%-50%

**Q.** What does the source list for CC(C)C[C@H](NC(=O)[C@H](Cc1ccccc1)NC(=O)c1cnccn1)B(O)O [bortezomib]?
**A.** rates of nearly CR (multiple myeloma [1]; [7]): 16%; response rate (multiple myeloma [5]): 38%
